Assays:
[1] = test system: SCC 84 (#84) cells; experiment: MTT cell viability, HPV- HNSCC cell line #84 with doxorubicin; format: cell-based; conditions: 2 μM doxorubicin; small molecules 0-12.5 μM
Description: (§1) FIGS. 8A-B includes graphs showing myricetin and spinacine (5) re-sensitized HPV^+, but not HPV^−, HNSCC cell lines to treatment with doxorubicin. One HPV^− (FIG. 8A; #84) and one HPV^+ (FIG. 8B; #90) head and neck cancer cell line (2×10^4 cells per well) were seeded into 96-well plates and allowed to incubate overnight, then cells were pre-treated with myricetin or spinacine (0-12.5 μM) for 4 h. 2 μM of doxorubicin was added and cells were allowed to incubate overnight. Cell viability was measured by MTT assay, and the viability of cells untreated with small molecules was set at 100%. Experiments were performed in triplicate, and error bars indicate the standard deviation.
(§2) The results described above indicate that myricetin and spinacine sensitize HPV^+ HNSCC cells to TRAIL-induced apoptosis. To determine whether this sensitization also occurs in the context of chemotherapeutic agents, several HNSCC cell lines were tested for their responses to combination treatments.
(§3) The extracellular domain of human TRAIL was cloned into a pTriEx expression plasmid containing N-terminal Hisx6 tag. His-TRAIL was expressed in the E. coli BL-21 pLys strain and purified as previously described. […] All experiments were repeated at least three times (three biological replicates, carried out on different days), with each experimental group measured in triplicate within each of these individual experiments. […]

[2] = target: T1, GST-E6 (Human papillomavirus type 16, UniProt P03126); experiment: Direct binding to E6 (FIG. 9); parameters: species or system HPV 16
T1 construct: made in house
T1 sequence (P03126 whole entry): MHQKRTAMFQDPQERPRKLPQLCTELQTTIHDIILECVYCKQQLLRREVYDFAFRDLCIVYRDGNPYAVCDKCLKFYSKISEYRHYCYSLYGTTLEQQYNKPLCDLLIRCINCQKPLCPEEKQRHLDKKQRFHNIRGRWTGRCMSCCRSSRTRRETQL

[3] = test system: UPCI-SCC90-UP-Clone 35 (#90) cells; experiment: MTT cell viability, HPV+ HNSCC cell line #90 with TRAIL; format: cell-based; conditions: HPV+ #90 cells, 50 ng/ml TRAIL
Description: (§4) FIGS. 7A-E are graphs showing myricetin and spinacine (5) re-sensitized HPV^+, but not HPV^−, head and neck cancer cell lines to treatment with TRAIL. (FIG. 7A) Both HPV^− and HPV^+ HN cancer cell lines display resistance to TRAIL treatment. HPV^− (#84) (Myricetin—FIG. 7B; Spinacine—FIG. 7C) and HPV^+ (#90) (FIG. 7D; Spinacine—FIG. 7E) head and neck cancer cell lines (2×10^4 cells per well) were seeded into 96-well plates and allowed to incubate overnight, then cells were pre-treated with myricetin (0-200 μM) or spinacine (0-100 μM) for 4 h. 50 μM of TRAIL, along with cycloheximide (5 μg/ml) was added and cells were allowed to incubate overnight. Cell viability was measured by the MTT assay, and the viability of cells untreated with small molecules was set at 100%. Experiments were performed in triplicate, and error bars indicate the standard deviation.
As shown above, myricetin and spinacine sensitize SiHa cells to TRAIL and chemotherapy drugs. […] Other types of HPV^+ cancer cells were examined, and in particular, head and neck squamous cell carcinoma (HNSCC) cells can also be sensitized in this manner. […] For the combination experiments, 50 ng/ml TRAIL was applied in combination with either myricetin (0-200 μM) or spinacine (0-100 μM). […] In contrast […], TRAIL-induced cell death was enhanced 30% in UPCI-SCC90-UP-Clone 35, #90. Furthermore, 40 μM spinacine was able to enhance TRAIL-induced cell death in the HPV^+ #90 cell lines up to 50%.
as §3, with “described. Doxorubicin and cisplatin were purchased from Sigma. His-TRAIL, doxorubicin, and cisplatin were diluted in PBS to the desired concentration before using.” for “described.”

[4] = test system: UPCI-SCC90-UP-Clone 35 (#90) cells; experiment: MTT cell viability, HPV+ HNSCC cell line #90 with doxorubicin; format: cell-based; conditions: 2 μM doxorubicin
Description: as §1, §2, §3

[5] = test system: SCC84 (#84) cells; experiment: MTT cell viability, HPV- HNSCC cell line #84 with TRAIL; format: cell-based; conditions: 50 ng/ml TRAIL with myricetin 0-200 μM or spinacine 0-100 μM
Description: as §4, with “50 μM of TRAIL, along with cycloheximide (5 μg/ml) was added and cells were allowed to incubate overnight.” left out
As shown above, myricetin and spinacine sensitize SiHa cells to TRAIL and chemotherapy drugs. […] Other types of HPV^+ cancer cells were examined, and in particular, head and neck squamous cell carcinoma (HNSCC) cells can also be sensitized in this manner. […]
as §3, with “tag.” for “tag. His-TRAIL was expressed in the E. coli BL-21 pLys strain and purified as previously described.”

[6] = Galli et al. 1989, 13-week oral study in rats, spinacine hydrochloride; cited from earlier work
[7] = test system: C33A cells; experiment: MTT cell viability, HPV- C33A cells with TRAIL; format: cell-based, human; conditions: 100 μM myricetin or 50 μM spinacine for 4 h
Description: FIGS. 5A-B are graphs showing myricetin and spinacine (5) re-sensitized HPV^+, but not HPV^−, cells to treatment with TRAIL. SiHa (2×10^4 cells per well) and C33A cells (1×10^4 cells per well) were seeded into a 96-well plate and allowed to incubate overnight, then cells were pre-treated in the presence or absence of myricetin (100 μM) (FIG. 5A) or spinacine (50 μM) (FIG. 5B) for 4 h. The indicated concentration of TRAIL, along with cycloheximide (5 μg/ml) was added and cells were allowed to incubate overnight. Cell viability was measured by MTT assay, and the viability of cells untreated with TRAIL was set at 100%. Experiments were performed in triplicate, and error bars indicate the standard deviation.
as §3, with “described. Doxorubicin and cisplatin were purchased from Sigma. His-TRAIL, doxorubicin, and cisplatin were diluted in PBS to the desired concentration before using.” for “described.”

[8] = target: T2, GST-E6/His-caspase 8 (Human papillomavirus type 16, UniProt P03126); conditions: Yuan et al. 2012; cited from earlier work
T2 construct: made in house
T2 sequence (P03126 whole entry): as above

SMILES | response of HPV- HNSCC cell line #84 to doxorubicin (in words) [1] | binding to GST-E6 (in words) ([2]; FIG. 9) | N (binding stoichiometry) ([2]; spinacine binding to GST-E6, FIG. 9) | enhancement of TRAIL-induced cell death ([3]; 40 μM spinacine) | cell death of HPV+ #90 cells with doxorubicin plus small molecule (in words) ([4]; small molecules 0-12.5 μM) | sensitization of #90 to doxorubicin ([4]; concentration of 12.5 μM) | response of HPV- HNSCC cell line #84 to TRAIL (in words) [5] | safety and tolerability (in words) [6] | response of C33A cells to TRAIL-mediated apoptosis after pre-treatment (in words) [7] | enhancement of TRAIL-induced cell death ([3]; myricetin 0-200 μM) | inhibition of the E6/caspase 8 interaction in vitro (in words) [8]
O=C(O)C1Cc2[nH]cnc2CN1 (stereo not shown) [Compound 5, 4,5,6,7-Tetrahydro-1H-imidazo(4,5-c)pyridine-6-carboxylic acid] | resistant | able to bind to GST-E6 | about 0.5 | up to 50% | higher efficiency than did myricetin | up to 50% | resistant | safe, well-tolerated | – | – | –
O=c1c(O)c(-c2cc(O)c(O)c(O)c2)oc2cc(O)cc(O)c12 [Myricetin, reference compound] | resistant | – | – | – | – | – | resistant | – | remained resistant | 30% | can inhibit the E6/caspase 8 interaction in vitro

— patent US20180200233A1, “COMPOSITIONS FOR PREVENTING CANCERS ASSOCIATED WITH HUMAN PAPILLOMA VIRUSES” (Loma Linda University, priority 2015, published 2018)
